From article PMC3626661, “Functional Specificity of Sex Pheromone Receptors in the Cotton Bollworm Helicoverpa armigera” (PLoS ONE, 2013)

Columns and labels:
Assay in all cases: two-electrode voltage clamp in Xenopus oocytes, dose-response
Format in all cases: cell-based
HarmOR6 = biological target: T1, HarmOR6 (Helicoverpa armigera, UniProt R4JSE3)
T1 construct: gene OR6; full-length ORF; with HarmOrco (HarmOR2)
T1 sequence (R4JSE3 1-425): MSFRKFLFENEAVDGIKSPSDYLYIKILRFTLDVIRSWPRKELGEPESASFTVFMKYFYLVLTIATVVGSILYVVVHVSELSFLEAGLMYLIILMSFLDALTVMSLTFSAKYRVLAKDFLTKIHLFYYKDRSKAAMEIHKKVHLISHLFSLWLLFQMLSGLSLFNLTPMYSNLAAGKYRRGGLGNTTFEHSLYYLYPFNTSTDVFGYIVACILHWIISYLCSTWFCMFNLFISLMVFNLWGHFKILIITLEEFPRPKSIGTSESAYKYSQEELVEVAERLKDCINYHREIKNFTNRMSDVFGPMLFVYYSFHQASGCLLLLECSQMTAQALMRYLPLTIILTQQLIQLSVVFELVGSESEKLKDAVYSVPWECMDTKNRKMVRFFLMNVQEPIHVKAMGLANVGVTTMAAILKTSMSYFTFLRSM
T1 sequence (A0A075TD45 1-473 partner): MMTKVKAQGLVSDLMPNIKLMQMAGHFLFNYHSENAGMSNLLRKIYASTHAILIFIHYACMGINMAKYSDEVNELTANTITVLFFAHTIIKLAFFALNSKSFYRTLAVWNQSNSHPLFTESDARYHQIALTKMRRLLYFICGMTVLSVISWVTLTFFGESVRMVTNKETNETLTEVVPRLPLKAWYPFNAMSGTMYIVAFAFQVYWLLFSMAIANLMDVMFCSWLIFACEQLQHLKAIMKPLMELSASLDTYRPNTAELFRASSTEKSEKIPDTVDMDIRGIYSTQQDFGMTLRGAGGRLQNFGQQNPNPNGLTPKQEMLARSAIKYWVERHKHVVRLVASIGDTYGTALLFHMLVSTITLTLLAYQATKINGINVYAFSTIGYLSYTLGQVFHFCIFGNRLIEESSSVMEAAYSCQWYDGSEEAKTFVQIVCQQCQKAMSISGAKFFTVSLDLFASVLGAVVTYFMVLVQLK
Description: two-electrode voltage clamp in Xenopus oocytes, dose-response on HarmOR6 | Dose–response curve of HarmOR6/HarmOR2 Xenopus oocytes to Z9-16:Ald. | Dose–response curve of HarmOR6/HarmOR2 Xenopus oocytes to Z9-14:Ald.

HarmOR13 = biological target: T2, HarmOR13 (Helicoverpa armigera, UniProt A0A075TD52)
T2 construct: gene OR13; full-length ORF; with HarmOrco (HarmOR2)
T2 sequence (A0A075TD52 1-425): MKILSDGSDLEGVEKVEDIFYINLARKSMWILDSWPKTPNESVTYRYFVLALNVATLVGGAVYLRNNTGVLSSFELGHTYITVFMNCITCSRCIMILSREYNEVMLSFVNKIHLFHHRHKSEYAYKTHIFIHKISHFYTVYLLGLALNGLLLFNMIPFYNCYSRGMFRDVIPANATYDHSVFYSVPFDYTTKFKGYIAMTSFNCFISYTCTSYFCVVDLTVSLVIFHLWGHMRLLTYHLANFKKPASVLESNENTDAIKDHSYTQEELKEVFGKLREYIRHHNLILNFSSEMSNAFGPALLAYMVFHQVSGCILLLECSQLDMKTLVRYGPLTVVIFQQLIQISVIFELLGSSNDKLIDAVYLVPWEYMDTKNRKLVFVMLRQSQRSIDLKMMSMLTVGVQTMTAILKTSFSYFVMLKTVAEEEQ
T2 sequence (A0A075TD45 1-473 partner): T1 sequence (A0A075TD45 1-473 partner)

HarmOR16 = biological target: T3, HarmOR16 (Helicoverpa armigera, UniProt C6K7B8)
T3 construct: full-length ORF; with HarmOrco (HarmOR2)
T3 sequence (C6K7B8 1-422): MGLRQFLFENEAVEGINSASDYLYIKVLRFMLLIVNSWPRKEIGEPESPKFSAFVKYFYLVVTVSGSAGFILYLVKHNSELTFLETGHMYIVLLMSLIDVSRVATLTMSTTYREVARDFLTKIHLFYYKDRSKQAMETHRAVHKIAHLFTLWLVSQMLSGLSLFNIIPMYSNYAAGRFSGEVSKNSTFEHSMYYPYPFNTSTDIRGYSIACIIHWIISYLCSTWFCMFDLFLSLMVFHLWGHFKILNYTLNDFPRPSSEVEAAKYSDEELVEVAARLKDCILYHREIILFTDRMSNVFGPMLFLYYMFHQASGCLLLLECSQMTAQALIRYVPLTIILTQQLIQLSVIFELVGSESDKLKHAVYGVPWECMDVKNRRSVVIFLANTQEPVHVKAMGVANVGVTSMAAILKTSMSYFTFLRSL
T3 sequence (A0A075TD45 1-473 partner): T1 sequence (A0A075TD45 1-473 partner)
Description: two-electrode voltage clamp in Xenopus oocytes, dose-response on HarmOR16 | Dose–response curve of HarmOR16/HarmOR2 Xenopus oocytes to Z11-16:OH.

Q: How did the EC50 (HarmOR6) turn out when CCCC/C=C\CCCCCCCC=O [Z9-14:Ald, (Z)-9-tetradecenal] was run?
A: The EC50 was 4340 nM.

Q: With CCCCCC/C=C\CCCCCCCC=O [Z9-16:Ald, (Z)-9-hexadecenal] as the compound, how does the EC50 (HarmOR6) read?
A: Its EC50 is 3530 nM.

Q: CCCC/C=C\CCCCCCCCCC=O [Z11-16:Ald, (Z)-11-hexadecenal] was tested. Which EC50 (HarmOR13) did it give?
A: Its EC50 is 1820 nM.

Q: How did the EC50 (HarmOR16) turn out when CCCC/C=C\CCCCCCCCCCO [Z11-16:OH, (Z)-11-hexadecen-1-ol] was run?
A: The EC50 was 299 nM.
